Measured values from patent US11390604B2 (Hoffmann-La Roche Inc., priority 2019, dated 2022).
Where a name gives a salt, the structure may show the parent alone.

What follows are compounds tested on Acinetobacter baumannii ATCC 17961 (assay: Antimicrobial susceptibility testing: 90% growth inhibitory concentration (IC90) determination). Conditions: ATCC17961, Acinetobacter baumannii ATCC 17961, Iso-Sensitest broth, read-out: ATCC 17961 IC90.
Type: cell-based
How it was run: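 Growth was followed kinetically by OD600 at 20-min intervals for 16 h at 35±2 °C, with ~5×10^5 CFU/ml in Iso-Sensitest broth. Compounds were tested as twofold dilutions (e.g. 50–0.097 μM final). The concentration giving 90% inhibition of log-phase growth was reported.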

**Q.** For `C#CCn1cc(-c2cnc(C(=O)Nc3ccc(C(=O)NC4C5CN(C(=O)C6CCNCC6)CC54)c(Cl)c3)n2C)c(C(F)(F)F)n1` (stereo not drawn) [Example 245, N-(3-chloro-4-((3-(piperidine-4-carbonyl)-3-azabicyclo[3.1.0]hexan-6-yl)carbamoyl)phenyl)-1-methyl-5-(1-(prop-2-yn-1-yl)-3-(trifluoromethyl)-1H-pyrazol-4-yl)-1H-imidazole-2-carboxamide formate], which IC90 is on record?
**A.** The IC90 was 288 nM.

**Q.** For `Cn1c(-c2cn(C3CC3)nc2C(F)(F)F)cnc1C(=O)Nc1ccc(C(=O)N2CCN(C(=O)C[C@H]3CCNC3)CC2)c(Cl)c1` [Example 246, (R)-N-(3-chloro-4-(4-(2-(pyrrolidin-3-yl)acetyl)piperazine-1-carbonyl)phenyl)-5-(1-cyclopropyl-3-(trifluoromethyl)-1H-pyrazol-4-yl)-1-methyl-1H-imidazole-2-carboxamide hydrochloride], which IC90 is on record?
**A.** The IC90 was 293 nM.

**Q.** Which IC90 does the source give for `Cn1c(-c2cn(C3CC3(F)F)nc2C(F)(F)F)cnc1C(=O)Nc1ccc(C(=O)NCCCCCN)c(Cl)c1` (stereo not drawn) [Example 247, N-(4-((5-aminopentyl)carbamoyl)-3-chlorophenyl)-5-(1-(2,2-difluorocyclopropyl)-3-(trifluoromethyl)-1H-pyrazol-4-yl)-1-methyl-1H-imidazole-2-carboxamide] here?
**A.** Its IC90 is 295 nM.

**Q.** `Cn1c(-c2cn(C3CC3(F)F)nc2C(F)(F)F)cnc1C(=O)Nc1ccc(C(=O)NC2[C@H]3CN(C(=O)NC(CN)CCl)C[C@@H]23)c(Cl)c1` (stereo partly drawn) [Example 248, cis-N-(1-amino-3-chloropropan-2-yl)-6-[[2-chloro-4-[[5-[1-(2,2-difluorocyclopropyl)-3-(trifluoromethyl)pyrazol-4-yl]-1-methylimidazole-2-carbonyl]amino]benzoyl]amino]-3-azabicyclo[3.1.0]hexane-3-carboxamide, formate salt] was tested. Which IC90 did it give?
**A.** Its IC90 is 297 nM.

**Q.** Which IC90 does the source give for `Cn1c(-c2cn(C3CC3)nc2C(F)(F)F)cnc1C(=O)Nc1ccc(C(=O)N2CCC3(CCNCC3)CC2)c(Cl)c1` [Example 249, N-(3-chloro-4-(3,9-diazaspiro[5.5]undecane-3-carbonyl)phenyl)-5-(1-cyclopropyl-3-(trifluoromethyl)-1H-pyrazol-4-yl)-1-methyl-1H-imidazole-2-carboxamide hydrochloride] here?
**A.** The IC90 was 300 nM.

**Q.** With `Cn1c(-c2cn(C3CC3)nc2C(F)(F)F)cnc1C(=O)Nc1ccc(C(=O)N2CCN(C(=O)[C@H]3CCCN3)CC2)c(Cl)c1` [Example 250, (R)-N-(3-chloro-4-(4-prolylpiperazine-1-carbonyl)phenyl)-5-(1-cyclopropyl-3-(trifluoromethyl)-1H-pyrazol-4-yl)-1-methyl-1H-imidazole-2-carboxamide hydrochloride] as the compound, how does the IC90 read?
**A.** Its IC90 is 302 nM.

**Q.** With `Cn1c(-c2cn(CCCl)nc2C(F)(F)F)cnc1C(=O)Nc1ccc(C(=O)N2CCN(C(=O)NC3CNC3)CC2)c(Cl)c1` [Example 251, N-(azetidin-3-yl)-4-[2-chloro-4-[[5-[1-(2-chloroethyl)-3-(trifluoromethyl)pyrazol-4-yl]-1-methyl-imidazole-2-carbonyl]amino]benzoyl]pipera-zine-1-carboxamide] as the compound, how does the IC90 read?
**A.** Its IC90 is 306 nM.

**Q.** With `Cn1c(-c2cn(C3CC3)nc2C(F)(F)F)cnc1C(=O)Nc1ccc(C(=O)N2CCN(C(=O)CCN)CC2)c(Cl)c1` [Example 252, N-(4-(4-(3-aminopropanoyl)piperazine-1-carbonyl)-3-chlorophenyl)-5-(1-cyclopropyl-3-(trifluoromethyl)-1H-pyrazol-4-yl)-1-methyl-1H-imidazole-2-carboxamide hydrochloride] as the compound, how does the IC90 read?
**A.** Its IC90 is 308 nM.

**Q.** Which IC90 does the source give for `Cn1c(-c2cn(CC#N)nc2C(F)(F)F)cnc1C(=O)Nc1ccc(C(=O)N[C@H]2C[C@@H](NC(=O)[C@@H]3CCNC3)C2)c(Cl)c1` [Example 253, N-[3-chloro-4-[[3-[[(3R)-pyrrolidine-3-carbonyl]amino]cyclobutyl]car-bamoyl]phenyl]-5-[1-(cyanomethyl)-3-(trifluoromethyl)pyrazol-4-yl]-1-methyl-imidazole-2-carboxamide; formic acid] here?
**A.** The IC90 was 309 nM.

**Q.** With `C=C(C)Cn1cc(-c2cnc(C(=O)Nc3ccc(C(=O)NCCCN)c(Cl)c3)n2C)c(C(F)(F)F)n1` [Example 255, N-(4-((3-aminopropyl)carbamoyl)-3-chlorophenyl)-1-methyl-5-(1-(2-methylallyl)-3-(trifluoromethyl)-1H-pyrazol-4-yl)-1H-imidazole-2-carboxamide tris(2,2,2-trifluoroacetate)] as the compound, how does the IC90 read?
**A.** The IC90 was 312 nM.

**Q.** How did the IC90 turn out when `C=C(C)Cn1cc(-c2cnc(C(=O)Nc3ccc(C(=O)N4CCN(C(=O)[C@H]5[C@@H]6CNC[C@@H]65)CC4)c(Cl)c3)n2C)c(C(F)(F)F)n1` [Example 257, rac-N-(4-(4-((1R,5S,6r)-3-azabicyclo[3.1.0]hexane-6-carbonyl)piperazine-1-carbonyl)-3-chlorophenyl)-1-methyl-5-(1-(2-methylallyl)-3-(trifluoromethyl)-1H-pyrazol-4-yl)-1H-imidazole-2-carboxamide hydrochloride] was run?
**A.** The IC90 was 313 nM.

**Q.** With `Cn1c(-c2cn(C3CC3)nc2C(F)(F)F)cnc1C(=O)Nc1ccc(C(=O)N2CCN(C(=O)[C@]3(C)CCCN3)CC2)c(Cl)c1` [Example 258, (S)-N-(3-chloro-4-(4-(2-methylpyrrolidine-2-carbonyl)piperazine-1-carbonyl)phenyl)-5-(1-cyclopropyl-3-(trifluoromethyl)-1H-pyrazol-4-yl)-1-methyl-1H-imidazole-2-carboxamide hydrochloride] as the compound, how does the IC90 read?
**A.** Its IC90 is 314 nM.

**Q.** Which IC90 does the source give for `Cn1c(-c2cn(C3C=C(F)C3)nc2C(F)(F)F)cnc1C(=O)Nc1ccc(C(=O)N[C@H]2[C@@H]3CN(C(=O)C4CCNCC4)C[C@@H]32)c(Cl)c1` (stereo partly drawn) [Example 259, N-(3-chloro-4-(((exo)-3-(piperidine-4-carbonyl)-3 azabicyclo[3.1.0]hexan-6-yl)carbamoyl)phenyl)-5-(1-(3-fluorocyclobut-2-en-1-yl)-3-(trifluoromethyl)-1H-pyrazol-4-yl)-1-methyl-1H-imidazole-2-carboxamide formate] here?
**A.** Its IC90 is 314 nM.

**Q.** How did the IC90 turn out when `Cn1c(-c2cn(CC3CCC3)nc2C(F)(F)F)cnc1C(=O)Nc1ccc(C(=O)N2CCN(C(=O)N[C@H]3C[C@@H](N)C3)CC2)c(Cl)c1` [Example 260, rac-N-((1s,3s)-3-aminocyclobutyl)-4-(2-chloro-4-(5-(1-(cyclobutylmethyl)-3-(trifluoromethyl)-1H-pyrazol-4-yl)-1-methyl-1H-imidazole-2-carboxamido)benzoyl)piperazine-1-carboxamide hydrochloride] was run?
**A.** The IC90 was 314 nM.

**Q.** Which IC90 does the source give for `C#CCn1cc(-c2cnc(C(=O)Nc3ccc(C(=O)N4CCN(C(=O)C5CCNCC5)CC4)c(F)c3)n2C)c(C(F)(F)F)n1` [Example 261, N-(3-fluoro-4-(4-(piperidine-4-carbonyl)piperazine-1-carbonyl)phenyl)-1-methyl-5-(1-(prop-2-yn-1-yl)-3-(trifluoromethyl)-1H-pyrazol-4-yl)-1H-imidazole-2-carboxamide] here?
**A.** Its IC90 is 323 nM.

**Q.** `Cn1c(-c2cn(C3CC3)nc2C(F)(F)F)cnc1C(=O)Nc1ccc(C(=O)NCCCCCCNC(=O)N[C@H]2C[C@@H](N)C2)c(Cl)c1` [Example 262, N-[4-[6-[(3-aminocyclobutyl)carbamoyl-amino]hexylcarbamoyl]-3-chlorophenyl]-5-[1-cyclopropyl-3-(trifluoromethyl)pyrazol-4-yl]-1-methylimidazole-2-carboxamide;formic acid] was tested. Which IC90 did it give?
**A.** Its IC90 is 323 nM.

**Q.** For `CCn1cc(-c2cnc(C(=O)Nc3ccc(C(=O)N4CCN(C(=O)[C@H]5[C@@H]6CNC[C@@H]65)CC4)c(Br)c3)n2C)c(C(F)(F)F)n1` [Example 263, N-[3-bromo-4-[4-[rac-(1R,5S)-3-azabicyclo[3.1.0]hexane-6-carbonyl]piperazine-1-carbonyl]phenyl]-5-[1-ethyl-3-(trifluoromethyl)pyrazol-4-yl]-1-methylimidazole-2-carboxamide;hydrochloride], which IC90 is on record?
**A.** Its IC90 is 325 nM.

**Q.** Which IC90 does the source give for `Cn1c(-c2cn(C3CC3(F)F)nc2C(F)(F)F)cnc1C(=O)Nc1ccc(C(=O)N[C@H]2[C@@H]3CN(C(=O)N4CCN(CCCN)CC4)C[C@@H]32)c(Cl)c1` (stereo partly drawn) [Example 264, N-(4-(((1R,5S,6s)-3-(4-(3-aminopropyl)piperazine-1-carbonyl)-3-azabicyclo[3.1.0]hexan-6-yl)carbamoyl)-3-chlorophenyl)-5-(1-(2,2-difluorocyclopropyl)-3-(trifluoromethyl)-1H-pyrazol-4-yl)-1-methyl-1H-imidazole-2-carboxamide] here?
**A.** The IC90 was 325 nM.

**Q.** `Cn1c(-c2cn(C3CC3(F)F)nc2C(F)(F)F)cnc1C(=O)Nc1ccc(C(=O)NC2[C@H]3CN(C(=O)N[C@H]4C[C@@H](N)C4)C[C@@H]23)c(Cl)c1` (stereo partly drawn) [Example 265, cis-N-(3-aminocyclobutyl)-6-[[2-chloro-4-[[5-[1-(2,2-difluorocyclopropyl)-3-(trifluoromethyl)pyrazol-4-yl]-1-methylimidazole-2-carbonyl]amino]benzoyl]amino]-3-azabicyclo[3.1.0]hexane-3-carboxamide, formate salt] was tested. Which IC90 did it give?
**A.** Its IC90 is 328 nM.

**Q.** For `Cn1c(-c2cn(C3CC3(F)F)nc2C(F)(F)F)cnc1C(=O)Nc1ccc(C(=O)N2CCN(C(=O)C3CCNCC3)CC2)c(Cl)c1` (stereo not drawn) [Example 267, N-(3-chloro-4-(4-(piperidine-4-carbonyl)piperazine-1-carbonyl)phenyl)-5-(1-(2,2-difluorocyclopropyl)-3-(trifluoromethyl)-1H-pyrazol-4-yl)-1-methyl-1H-imidazole-2-carboxamide formate], which IC90 is on record?
**A.** Its IC90 is 332 nM.

Same assay, conditions: Acinetobacter baumannii, ATCC17961, read-out: ATCC 17961 IC90, Acinetobacter baumannii ATCC 17961, Iso-Sensitest broth

**Q.** With `Cn1c(-c2cn(C3CC3)nc2C(F)(F)F)cnc1C(=O)Nc1ccc(C(=O)N2CCN(C(=O)N[C@@H]3C[C@H](N)C3(C)C)CC2)c(Cl)c1` [Example 266, N-[(1R,3S)-3-amino-2,2-dimethylcyclobutyl]-4-[2-chloro-4-[[5-[1-cyclopropyl-3-(trifluoromethyl)pyrazol-4-yl]-1-methylimidazole-2-carbonyl]amino]benzoyl]pipera-zine-1-carboxamide;formic acid] as the compound, how does the IC90 read?
**A.** The IC90 was 330 nM.
